The values that follow come from patent US10654834B2 (Venenum Biodesign, LLC, priority 2016, dated 2020).

SMILES strings stand for the structures. Where only a bound is given, the exact number is not on record here.

Series [1] can be described thus: Pharmacokinetic profile in mice after oral gavage. Type of series: in vivo, mouse. Conditions: mouse; fasted male Hilltop mice, 10 mg/kg oral gavage, plasma; read-out: Cmax. As for the experimental part:
Pharmacokinetic Profile in Mice
In this series of studies, the pharmacokinetic profile characteristics of compounds of the present invention were evaluated. The plasma concentration levels of the compounds were monitored in the blood stream (i.e., plasma) after oral gavage using Cmax, and area under the curve (AUC).
8 week old male Hilltop mice were fasted overnight. Animals were randomized into groups (n=9) by body weight. Mice were dosed with 10 mg/kg compound (in 20% PEG400/80% 0.5% carboxymethylcellulose (medium viscosity)+0.25% Tween-80) at a volume of […] through oral gavage. Blood was collected via orbital bleeding at 0, 0.25, 0.5, 1, 2, and 4 h post-dose, with no one mouse having more than 3 blood draws. Blood was collected in EDTA coated tubes. Samples were stored at −20° C. until analysis.
Quantitation of compound levels in plasma was accomplished by LC-MS/MS analysis. Standard curve and quality control samples were prepared in male CD-1 mouse plasma containing EDTA K^2+ as an anticoagulant at final concentrations ranging from 500 to 0.1 ng/mL. The plasma samples, calibration curve standards, and quality control samples were prepared in an identical method in a 96-well deep plate (1 mL) with a quenching solution (1:1 mixed acetonitrile:methanol containing the internal standard Reserpine @ 400 ng/mL). Low volume samples were supplemented with CD-1 mouse plasma. The plate was mixed on multi-tube vortexer for 1 min and centrifuged at 4000 rpm for 30 min at 4° C. (Sorvall® Super T21) before LC-MS/MS analysis. LC conditions were developed and optimized based on each compound as needed. The outlet of the column was coupled to AB Sciex 4000 QTrap Mass Spectrometer (AB Sciex, Brugg Switzerland). Detection was carried out using multiple reaction monitoring mode with positive-ion detection focusing. The pharmacokinetic parameters were derived from the plasma-time data and calculated using the standard non-compartmental method with WinNonlin (Pharsight, Mountain View, Calif.) or PK Solver (Comp. Meth. Prog. Biomed. (2010), 99, 306-314).
Values reported are the mean plasma concentration of three mice. […]

A further series addresses T1, mouse TGR5 receptor (Mus musculus, UniProt Q80SS6).
T1 construct: host or cells: HEK293-EBNA (293 c18, ATCC CRL10852)
T1 sequence (Q80SS6 1-329): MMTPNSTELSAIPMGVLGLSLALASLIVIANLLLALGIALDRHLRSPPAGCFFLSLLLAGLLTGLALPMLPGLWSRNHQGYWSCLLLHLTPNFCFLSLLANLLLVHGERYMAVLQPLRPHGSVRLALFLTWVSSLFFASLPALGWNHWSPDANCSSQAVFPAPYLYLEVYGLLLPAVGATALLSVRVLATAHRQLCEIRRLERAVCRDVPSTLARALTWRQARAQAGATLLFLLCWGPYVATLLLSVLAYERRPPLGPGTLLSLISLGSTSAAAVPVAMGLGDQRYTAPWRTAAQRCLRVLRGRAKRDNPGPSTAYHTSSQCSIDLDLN
The experiment in a line: Mouse TGR5 HTRF cAMP production assay (HEK293-EBNA cells, Cisbio cAMP HiRange kit). It counts as cell-based. Conditions: HEK293-EBNA cells overexpressing mouse TGR5, HTRF cAMP assay. Put shortly: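 HEK293-EBNA cells stably expressing mouse TGR5 (episomal vector) were suspended in serum-free DMEM with 500 μM IBMX and exposed to 12-point half-log compound dilutions for 1 h at room temperature. cAMP was detected by HTRF (d2-cAMP/anti-cAMP cryptate, 1 h, room temperature), giving EC50 from duplicates.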
Background: TR-FRET usually uses a lanthanide donor and a delayed reading to cut background.

The target of a further series is T2, human TGR5 receptor (Homo sapiens, UniProt Q8TDU6).
T2 construct: host or cells: CHO-K1 (hTGR5-CHO)
T2 sequence (Q8TDU6 1-330): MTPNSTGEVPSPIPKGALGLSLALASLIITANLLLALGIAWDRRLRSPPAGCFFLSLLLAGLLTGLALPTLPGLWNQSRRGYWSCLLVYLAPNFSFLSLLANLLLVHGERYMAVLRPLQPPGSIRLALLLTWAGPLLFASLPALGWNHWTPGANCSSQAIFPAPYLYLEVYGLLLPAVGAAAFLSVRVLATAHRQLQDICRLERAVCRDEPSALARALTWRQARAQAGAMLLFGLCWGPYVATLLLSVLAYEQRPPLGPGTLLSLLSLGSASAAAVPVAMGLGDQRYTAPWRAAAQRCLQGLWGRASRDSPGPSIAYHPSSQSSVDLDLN
The experiment in a line: Human TGR5 cAMP production assay (hTGR5-CHO cells, DiscoveRx cAMP XS+ kit). As to conditions: luminescent cAMP assay, read-out: Human TGR5 Lum. cAMP Activity (EC50). It counts as cell-based. Put shortly: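 CHO-K1 cells stably expressing hTGR5, in PBS with IBMX and cAMP antibody, treated with half-log compound dilutions for 1 h at room temperature. cAMP measured by enzyme-fragment complementation luminescence after overnight detection; EC50 values reported.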

What is called Cmax is the maximum level reached in the sampled fluid or tissue. The EC50 is the concentration that produces a half-maximal response. On to `N#Cc1ccc(CCNC(=O)[C@@H]2CCCN2c2cc(N3CCC(CCCC(=O)NCCOCCOCCNC(=N)N)CC3)nc(C(F)(F)F)n2)cc1` [Compound 127, (S)-1-(6-(4-(1-amino-1-imino-12-oxo-5,8-dioxa-2,11-diazapentadecan-15-yl)piperidin-1-yl)-2-(trifluoromethyl)-pyrimidin-4-yl)-N-(4-cyanophenethyl)-pyrrolidine-2-carboxamide], for which the Cmax in series [1] amounted to 11 ng/mL. The EC50 at mouse TGR5 receptor and on human TGR5 receptor was under 100 nM throughout.
`N#Cc1ccc(CCNC(=O)[C@@H]2CCN2c2cc(N3CCC(CCCC(=O)N[C@@H](CCCNC(=N)N)C(=O)O)CC3)nc(C(F)(F)F)n2)cc1` [Compound 251, (S)-2-(4-(1-(6-((S)-2-((4-cyanophenethyl)carbamoyl)azetidin-1-yl)-2-(trifluoromethyl)pyrimidin-4-yl)piperidin-4-yl)butanamido)-5-guanidinopentanoic acid]: the EC50 at mouse TGR5 receptor and at human TGR5 receptor was under 100 nM in each case.
As for `N#Cc1ccc(CCNC(=O)[C@@H]2CCCN2c2cc(N3CCC(CCNc4c(NCCS(=O)(=O)NCC(=O)O)c(=O)c4=O)CC3)nc(C(F)(F)F)n2)cc1` [Compound 370, (S)-2-(2-((2-((2-(1-(6-(2-((4-cyanophenethyl)carbamoyl)pyrrolidin-1-yl)-2-(trifluoromethyl)pyrimidin-4-yl)piperidin-4-yl)ethyl)amino)-3,4-dioxocyclobut-1-en-1-yl)amino)ethylsulfonamido)acetic acid], the EC50 on mouse TGR5 receptor and at human TGR5 receptor was under 100 nM in each case.
As to `N#Cc1ccc(CCNC(=O)[C@@H]2CCCN2c2cc(N3CCC(CCCC(=O)N[C@@H](CCCNC(=N)N)C(=O)O)CC3)cc(C(F)(F)F)n2)cc1` [Compound 200, (S)-2-(4-(1-(2-((S)-2-((4-cyanophenethyl)carbamoyl)pyrrolidin-1-yl)-6-(trifluoromethyl)pyridin-4-yl)piperidin-4-yl)butanamido)-5-guanidinopentanoic acid], the EC50 at mouse TGR5 receptor and on human TGR5 receptor was under 100 nM in each case.
As to `O=C(CS(=O)(=O)O)NCCC1CCN(c2cc(N3CC[C@H]3C(=O)NCCc3ccc(C(F)(F)F)cc3)nc(C(F)(F)F)n2)CC1` [Compound 279, (S)-2-oxo-2-((2-(1-(2-(trifluoromethyl)-6-(2-((4-(trifluoromethyl)phenethyl)carbamoyl)azetidin-1-yl)pyrimidin-4-yl)piperidin-4-yl)ethyl)amino)-ethanesulfonic acid], the EC50 on mouse TGR5 receptor and at human TGR5 receptor was under 100 nM throughout.
On to `N#Cc1ccc(CCNC(=O)[C@@H]2CCCN2c2cc(N3CCC(CCCC(=O)NCCN)CC3)nc(C(F)(F)F)n2)cc1` [Compound 92, (S)-1-(6-(4-(4-((2-aminoethyl)amino)-4-oxobutyl)piperidin-1-yl)-2-(trifluoromethyl)pyrimidin-4-yl)-N-(4-cyanophenethyl)pyrrolidine-2-carboxamide], for which the concentration giving a half-maximal response (EC50) on mouse TGR5 receptor and at human TGR5 receptor was under 100 nM throughout.
With `O=C(O)CCNC(=O)NCCC1CCN(c2cc(N3CCC[C@H]3C(=O)NCCc3ccc(-c4ccncc4)cc3)nc(C(F)(F)F)n2)CC1` [Compound 376, (S)-3-(3-(2-(1-(6-(2-((4-(pyridin-4-yl)phenethyl)carbamoyl)pyrrolidin-1-yl)-2-(trifluoromethyl)pyrimidin-4-yl)piperidin-4-yl)ethyl)ureido)propanoic acid], the EC50 at mouse TGR5 receptor was under 100 nM; at human TGR5 receptor it was 100 to 999 nM.
As for `N#Cc1ccc(CCNC(=O)[C@@H]2CCCN2c2cc(-c3ccc(COCC(=O)O)cc3)cc(C(F)(F)F)n2)cc1` [Compound 208, (S)-2-((4-(2-(2-((4-cyanophenethyl)carbamoyl)pyrrolidin-1-yl)-6-(trifluoromethyl)pyridin-4-yl)benzyl)oxy)acetic acid], the EC50 was under 100 nM on mouse TGR5 receptor and 100 to 999 nM at human TGR5 receptor.
For `COC(=O)C(=O)N1CCN(c2cc(N3CCC[C@@H](C(=O)NCCc4ccc(C(F)(F)F)cc4)C3)nc(C(F)(F)F)n2)CC1` [Compound 339, (R)-methyl 2-oxo-2-(4-(2-(trifluoromethyl)-6-(3-((4-(trifluoromethyl)phenethyl)-carbamoyl)piperidin-1-yl)pyrimidin-4-yl)piperazin-1-yl)acetate] the same measures were 100 to 999 nM and 1000 to 30000 nM.
For `COc1cc(C(F)(F)F)ccc1CCNC(=O)[C@@H]1CCN1c1cc(N2CCC(CO)CC2)nc(C(F)(F)F)n1` [Compound 237, (S)-1-(6-(4-(hydroxymethyl)piperidin-1-yl)-2-(trifluoromethyl)pyrimidin-4-yl)-N-(2-methoxy-4-(trifluoromethyl)phenethyl)azetidine-2-carboxamide] the same measures were under 100 nM and under 100 nM.
Consider `N#Cc1ccc(CCNC(=O)[C@@H]2CCCN2c2cc(NCCS(=O)(=O)O)nc(C(F)(F)F)n2)cc1` [Compound 12], for which the EC50 at mouse TGR5 receptor and at human TGR5 receptor was 1000 to 30000 nM throughout.
Take `N#Cc1ccc(CCNC(=O)[C@@H]2CCCN2c2cc(C(F)(F)F)cc(N3CCC(CO)CC3)n2)cc1` [Compound 37]: the results for the EC50 at mouse TGR5 receptor and at human TGR5 receptor were over 30000 nM and 1000 to 30000 nM, respectively.
On the same counts, the results for `Cc1ccsc1-c1cc(N2CCC[C@H]2C(=O)NCCc2ccc(C#N)cc2)nc(C(F)(F)F)n1` [Compound 172, (S)-N-(4-cyanophenethyl)-1-(6-(3-methylthiophen-2-yl)-2-(trifluoromethyl)pyrimidin-4-yl)pyrrolidine-2-carboxamide] are 100 to 999 nM and 100 to 999 nM.
For `CC(C)(C)OC(=O)N[C@@H](CO)C(=O)N1CCN(c2cc(N3CCC[C@@H](C(=O)NCCc4ccc(C(F)(F)F)cc4)C3)nc(C(F)(F)F)n2)CC1` [Compound 341, tert-butyl ((S)-3-hydroxy-t-oxo-1-(4-(2-(trifluoromethyl)-6-((R)-3-((4-(trifluoromethyl)phenethyl)carbamoyl)piperidin-1-yl)pyrimidin-4-yl)piperazin-1-yl)propan-2-yl)carbamate] the same measures were 100 to 999 nM and 1000 to 30000 nM.
For `N#Cc1ccc(CCNC(=O)[C@@H]2CCCN2c2cc(-c3ccc(CCNC(=O)NCCCS(=O)(=O)O)cc3)nc(C(F)(F)F)n2)cc1` [Compound 195, (S)-3-(3-(4-(6-(2-((4-cyanophenethyl)carbamoyl)pyrrolidin-1-yl)-2-(trifluoromethyl)pyrimidin-4-yl)phenethyl)ureido)propane-1-sulfonic acid] the same measures were under 100 nM and 100 to 999 nM.
As for `CN(C)CCN1CCN(c2cc(N3CCC[C@H]3C(=O)NCCc3ccc(C#N)cc3)nc(C(F)(F)F)n2)CC1` [Compound 30], the EC50 at mouse TGR5 receptor and on human TGR5 receptor was 100 to 999 nM throughout.
Turning to `N#CCCN1CCN(c2cc(N3CCC[C@@H](C(=O)NCCc4ccc(C#N)cc4)C3)nc(C(F)(F)F)n2)CC1` [Compound 316, (R)-1-(6-(4-(2-cyanoethyl)piperazin-1-yl)-2-(trifluoromethyl)pyrimidin-4-yl)-N-(4-cyanophenethyl)piperidine-3-carboxamide], the EC50 at mouse TGR5 receptor and at human TGR5 receptor was under 100 nM throughout.
